# In ChEMBL document CHEMBL4651402, “Screening of ~5500 FDA-approved drugs and clinical candidates for anti-SARS-CoV-2 activity” (2021):
# pIC50: −log10 of the molar value.
# System: SARS-CoV-2
# Assay: microbe, parasite or virus in culture
# Format: functional, organism-based, Chlorocebus sabaeus, Vero C1008
# Details: Severe acute respiratory syndrome coronavirus 2, Vero C1008, 48 h; read-out: IC50
row,SMILES,pIC50
1,CNCCC=C1c2ccccc2CCc2ccccc21 [NORTRIPTYLINE],< 4.00
2,CN(C)CCON=C1c2ccccc2CCc2ccccc21 [NOXIPTILINE],< 4.00
3,Cc1ccc(C(=O)Oc2ccc(C(O)CNC(C)(C)C)cc2OC(=O)c2ccc(C)cc2)cc1 (centres undefined) [BITOLTEROL],< 4.00
4,CC(C)CN(C[C@@H](O)[C@H](Cc1ccccc1)NC(=O)O[C@H]1CO[C@H]2OCC[C@H]21)S(=O)(=O)c1ccc2nc(NC3CCN(C4CCCC4)CC3)sc2c1 [TMC 310911],~5.02
5,CN1CCN(CCCN2c3ccccc3Sc3ccc(S(=O)(=O)N(C)C)cc32)CC1 [THIOPROPERAZINE],< 4.00
6,CN1CCC(CN2c3ccccc3Sc3ccccc32)C1 (centres undefined) [METHDILAZINE],< 4.00
7,COc1ccc(C#Cc2ccccc2)c(CCC(C)N(C)CCc2ccc(OC)c(OC)c2)c1 (centres undefined),< 4.00
8,CC(C)N1CCN(c2ccc(OCC3COC(Cn4cncn4)(c4ccc(Cl)cc4Cl)O3)cc2)CC1 (centres undefined) [TERCONAZOLE],< 4.90
9,c1ccc(C(O[C@H]2CCCN(CCc3ccc4c(c3)OCO4)C2)c2ccccc2)cc1,4.06
10,COC(=O)[C@H]1[C@H]2C[C@@H]3c4[nH]c5cc(OC)ccc5c4CCN3C[C@H]2C[C@@H](OC(=O)c2cc(OC)c(OC)c(OC)c2)[C@@H]1OC [RESERPINE],< 4.30
11,CCCCN(CCCC)CCC(O)c1cc2c(Cl)cc(Cl)cc2c2cc(C(F)(F)F)ccc12 (centres undefined) [HALOFANTRINE],~5.04
12,CC[C@@H]([C@H](C)O)n1ncn(-c2ccc(N3CCN(c4ccc(OC[C@@H]5CO[C@@](Cn6cncn6)(c6ccc(F)cc6F)C5)cc4)CC3)cc2)c1=O [POSACONAZOLE],< 4.00
13,NC(=O)C(c1ccccc1)(c1ccccc1)[C@@H]1CCN(CCc2ccc3c(c2)CCO3)C1 [DARIFENACIN],< 4.00
14,COc1ccc2cc(-c3cc(-c4cc(Cl)cc(Cl)c4)nn3[C@@H](C)c3ccc(C(=O)NCCC(=O)O)cc3)ccc2c1 [MK-0893],< 4.00

# Same assay, conditions: Severe acute respiratory syndrome coronavirus 2, Vero C1008, 48 h; read-out: pIC50 (converted)
row,SMILES,IC50 [µM]
1,CNCCC=C1c2ccccc2CCc2ccccc21 [NORTRIPTYLINE],> 100
2,CN(C)CCON=C1c2ccccc2CCc2ccccc21 [NOXIPTILINE],> 100
3,Cc1ccc(C(=O)Oc2ccc(C(O)CNC(C)(C)C)cc2OC(=O)c2ccc(C)cc2)cc1 (centres undefined) [BITOLTEROL],> 100
4,CC(C)CN(C[C@@H](O)[C@H](Cc1ccccc1)NC(=O)O[C@H]1CO[C@H]2OCC[C@H]21)S(=O)(=O)c1ccc2nc(NC3CCN(C4CCCC4)CC3)sc2c1 [TMC 310911],~9.55
5,CN1CCN(CCCN2c3ccccc3Sc3ccc(S(=O)(=O)N(C)C)cc32)CC1 [THIOPROPERAZINE],> 100
6,CN1CCC(CN2c3ccccc3Sc3ccccc32)C1 (centres undefined) [METHDILAZINE],> 100
7,COc1ccc(C#Cc2ccccc2)c(CCC(C)N(C)CCc2ccc(OC)c(OC)c2)c1 (centres undefined),> 100
8,CC(C)N1CCN(c2ccc(OCC3COC(Cn4cncn4)(c4ccc(Cl)cc4Cl)O3)cc2)CC1 (centres undefined) [TERCONAZOLE],> 12.6
9,c1ccc(C(O[C@H]2CCCN(CCc3ccc4c(c3)OCO4)C2)c2ccccc2)cc1,87.1
10,COC(=O)[C@H]1[C@H]2C[C@@H]3c4[nH]c5cc(OC)ccc5c4CCN3C[C@H]2C[C@@H](OC(=O)c2cc(OC)c(OC)c(OC)c2)[C@@H]1OC [RESERPINE],> 50.1
11,CCCCN(CCCC)CCC(O)c1cc2c(Cl)cc(Cl)cc2c2cc(C(F)(F)F)ccc12 (centres undefined) [HALOFANTRINE],~9.12
12,CC[C@@H]([C@H](C)O)n1ncn(-c2ccc(N3CCN(c4ccc(OC[C@@H]5CO[C@@](Cn6cncn6)(c6ccc(F)cc6F)C5)cc4)CC3)cc2)c1=O [POSACONAZOLE],> 100
13,NC(=O)C(c1ccccc1)(c1ccccc1)[C@@H]1CCN(CCc2ccc3c(c2)CCO3)C1 [DARIFENACIN],> 100
14,COc1ccc2cc(-c3cc(-c4cc(Cl)cc(Cl)c4)nn3[C@@H](C)c3ccc(C(=O)NCCC(=O)O)cc3)ccc2c1 [MK-0893],> 100

# System: SARS-CoV-2
# Assay: microbe, parasite or virus in culture
# Details: Severe acute respiratory syndrome coronavirus 2, Vero C1008, 48 h
row,SMILES,pIC50
1,CNCCC=C1c2ccccc2CCc2ccccc21 [NORTRIPTYLINE],4.80
2,CN(C)CCON=C1c2ccccc2CCc2ccccc21 [NOXIPTILINE],4.85
3,Cc1ccc(C(=O)Oc2ccc(C(O)CNC(C)(C)C)cc2OC(=O)c2ccc(C)cc2)cc1 (centres undefined) [BITOLTEROL],5.09
4,CC(C)CN(C[C@@H](O)[C@H](Cc1ccccc1)NC(=O)O[C@H]1CO[C@H]2OCC[C@H]21)S(=O)(=O)c1ccc2nc(NC3CCN(C4CCCC4)CC3)sc2c1 [TMC 310911],5.40
5,CN1CCN(CCCN2c3ccccc3Sc3ccc(S(=O)(=O)N(C)C)cc32)CC1 [THIOPROPERAZINE],4.88
6,CN1CCC(CN2c3ccccc3Sc3ccccc32)C1 (centres undefined) [METHDILAZINE],4.79
7,COc1ccc(C#Cc2ccccc2)c(CCC(C)N(C)CCc2ccc(OC)c(OC)c2)c1 (centres undefined),5.37
8,CC(C)N1CCN(c2ccc(OCC3COC(Cn4cncn4)(c4ccc(Cl)cc4Cl)O3)cc2)CC1 (centres undefined) [TERCONAZOLE],4.78
9,c1ccc(C(O[C@H]2CCCN(CCc3ccc4c(c3)OCO4)C2)c2ccccc2)cc1,< 4.00
10,COC(=O)[C@H]1[C@H]2C[C@@H]3c4[nH]c5cc(OC)ccc5c4CCN3C[C@H]2C[C@@H](OC(=O)c2cc(OC)c(OC)c(OC)c2)[C@@H]1OC [RESERPINE],< 4.60
11,CCCCN(CCCC)CCC(O)c1cc2c(Cl)cc(Cl)cc2c2cc(C(F)(F)F)ccc12 (centres undefined) [HALOFANTRINE],5.02
12,CC[C@@H]([C@H](C)O)n1ncn(-c2ccc(N3CCN(c4ccc(OC[C@@H]5CO[C@@](Cn6cncn6)(c6ccc(F)cc6F)C5)cc4)CC3)cc2)c1=O [POSACONAZOLE],< 4.00
13,NC(=O)C(c1ccccc1)(c1ccccc1)[C@@H]1CCN(CCc2ccc3c(c2)CCO3)C1 [DARIFENACIN],< 4.60
14,COc1ccc2cc(-c3cc(-c4cc(Cl)cc(Cl)c4)nn3[C@@H](C)c3ccc(C(=O)NCCC(=O)O)cc3)ccc2c1 [MK-0893],< 4.00

# Same assay, conditions: Severe acute respiratory syndrome coronavirus 2, Vero C1008, 48 h, read-out: pIC50 (converted)
row,SMILES,IC50 [µM]
1,CNCCC=C1c2ccccc2CCc2ccccc21 [NORTRIPTYLINE],15.8
2,CN(C)CCON=C1c2ccccc2CCc2ccccc21 [NOXIPTILINE],14.1
3,Cc1ccc(C(=O)Oc2ccc(C(O)CNC(C)(C)C)cc2OC(=O)c2ccc(C)cc2)cc1 (centres undefined) [BITOLTEROL],8.13
4,CC(C)CN(C[C@@H](O)[C@H](Cc1ccccc1)NC(=O)O[C@H]1CO[C@H]2OCC[C@H]21)S(=O)(=O)c1ccc2nc(NC3CCN(C4CCCC4)CC3)sc2c1 [TMC 310911],3.89
5,CN1CCN(CCCN2c3ccccc3Sc3ccc(S(=O)(=O)N(C)C)cc32)CC1 [THIOPROPERAZINE],13.2
6,CN1CCC(CN2c3ccccc3Sc3ccccc32)C1 (centres undefined) [METHDILAZINE],16.2
7,COc1ccc(C#Cc2ccccc2)c(CCC(C)N(C)CCc2ccc(OC)c(OC)c2)c1 (centres undefined),4.27
8,CC(C)N1CCN(c2ccc(OCC3COC(Cn4cncn4)(c4ccc(Cl)cc4Cl)O3)cc2)CC1 (centres undefined) [TERCONAZOLE],16.6
9,c1ccc(C(O[C@H]2CCCN(CCc3ccc4c(c3)OCO4)C2)c2ccccc2)cc1,> 100
10,COC(=O)[C@H]1[C@H]2C[C@@H]3c4[nH]c5cc(OC)ccc5c4CCN3C[C@H]2C[C@@H](OC(=O)c2cc(OC)c(OC)c(OC)c2)[C@@H]1OC [RESERPINE],> 25.1
11,CCCCN(CCCC)CCC(O)c1cc2c(Cl)cc(Cl)cc2c2cc(C(F)(F)F)ccc12 (centres undefined) [HALOFANTRINE],9.55
12,CC[C@@H]([C@H](C)O)n1ncn(-c2ccc(N3CCN(c4ccc(OC[C@@H]5CO[C@@](Cn6cncn6)(c6ccc(F)cc6F)C5)cc4)CC3)cc2)c1=O [POSACONAZOLE],> 100
13,NC(=O)C(c1ccccc1)(c1ccccc1)[C@@H]1CCN(CCc2ccc3c(c2)CCO3)C1 [DARIFENACIN],> 25.1
14,COc1ccc2cc(-c3cc(-c4cc(Cl)cc(Cl)c4)nn3[C@@H](C)c3ccc(C(=O)NCCC(=O)O)cc3)ccc2c1 [MK-0893],> 100

# System: not listed separately
# Assay: in vitro
# Details: chlorocebus sabaeus, Vero E6 (Vero C1008) cells, CC50
row,SMILES,CC50 at 48 h [µM]
1,CN(C)CCON=C1c2ccccc2CCc2ccccc21 [NOXIPTILINE],77.6
2,Cc1ccc(C(=O)Oc2ccc(C(O)CNC(C)(C)C)cc2OC(=O)c2ccc(C)cc2)cc1 (centres undefined) [BITOLTEROL],5.69
3,CC(C)CN(C[C@@H](O)[C@H](Cc1ccccc1)NC(=O)O[C@H]1CO[C@H]2OCC[C@H]21)S(=O)(=O)c1ccc2nc(NC3CCN(C4CCCC4)CC3)sc2c1 [TMC 310911],~13
4,CN1CCN(CCCN2c3ccccc3Sc3ccc(S(=O)(=O)N(C)C)cc32)CC1 [THIOPROPERAZINE],6.31
5,CN1CCC(CN2c3ccccc3Sc3ccccc32)C1 (centres undefined) [METHDILAZINE],14.8
6,COc1ccc(C#Cc2ccccc2)c(CCC(C)N(C)CCc2ccc(OC)c(OC)c2)c1 (centres undefined),4.84
7,CC(C)N1CCN(c2ccc(OCC3COC(Cn4cncn4)(c4ccc(Cl)cc4Cl)O3)cc2)CC1 (centres undefined) [TERCONAZOLE],~10
8,c1ccc(C(O[C@H]2CCCN(CCc3ccc4c(c3)OCO4)C2)c2ccccc2)cc1,> 100
9,COC(=O)[C@H]1[C@H]2C[C@@H]3c4[nH]c5cc(OC)ccc5c4CCN3C[C@H]2C[C@@H](OC(=O)c2cc(OC)c(OC)c(OC)c2)[C@@H]1OC [RESERPINE],~11
10,CCCCN(CCCC)CCC(O)c1cc2c(Cl)cc(Cl)cc2c2cc(C(F)(F)F)ccc12 (centres undefined) [HALOFANTRINE],11.5
11,CC[C@@H]([C@H](C)O)n1ncn(-c2ccc(N3CCN(c4ccc(OC[C@@H]5CO[C@@](Cn6cncn6)(c6ccc(F)cc6F)C5)cc4)CC3)cc2)c1=O [POSACONAZOLE],> 100
12,NC(=O)C(c1ccccc1)(c1ccccc1)[C@@H]1CCN(CCc2ccc3c(c2)CCO3)C1 [DARIFENACIN],56.2
13,COc1ccc2cc(-c3cc(-c4cc(Cl)cc(Cl)c4)nn3[C@@H](C)c3ccc(C(=O)NCCC(=O)O)cc3)ccc2c1 [MK-0893],~18.8

# Same assay, conditions: chlorocebus sabaeus, Vero E6 (Vero C1008) cells, pCC50
row,SMILES,CC50 at 48 h [µM]
1,CN(C)CCON=C1c2ccccc2CCc2ccccc21 [NOXIPTILINE],77.6
2,Cc1ccc(C(=O)Oc2ccc(C(O)CNC(C)(C)C)cc2OC(=O)c2ccc(C)cc2)cc1 (centres undefined) [BITOLTEROL],5.62
3,CC(C)CN(C[C@@H](O)[C@H](Cc1ccccc1)NC(=O)O[C@H]1CO[C@H]2OCC[C@H]21)S(=O)(=O)c1ccc2nc(NC3CCN(C4CCCC4)CC3)sc2c1 [TMC 310911],~12.9
4,CN1CCN(CCCN2c3ccccc3Sc3ccc(S(=O)(=O)N(C)C)cc32)CC1 [THIOPROPERAZINE],6.31
5,CN1CCC(CN2c3ccccc3Sc3ccccc32)C1 (centres undefined) [METHDILAZINE],14.8
6,COc1ccc(C#Cc2ccccc2)c(CCC(C)N(C)CCc2ccc(OC)c(OC)c2)c1 (centres undefined),4.79
7,CC(C)N1CCN(c2ccc(OCC3COC(Cn4cncn4)(c4ccc(Cl)cc4Cl)O3)cc2)CC1 (centres undefined) [TERCONAZOLE],~10
8,c1ccc(C(O[C@H]2CCCN(CCc3ccc4c(c3)OCO4)C2)c2ccccc2)cc1,> 100
9,COC(=O)[C@H]1[C@H]2C[C@@H]3c4[nH]c5cc(OC)ccc5c4CCN3C[C@H]2C[C@@H](OC(=O)c2cc(OC)c(OC)c(OC)c2)[C@@H]1OC [RESERPINE],~11
10,CCCCN(CCCC)CCC(O)c1cc2c(Cl)cc(Cl)cc2c2cc(C(F)(F)F)ccc12 (centres undefined) [HALOFANTRINE],11.5
11,CC[C@@H]([C@H](C)O)n1ncn(-c2ccc(N3CCN(c4ccc(OC[C@@H]5CO[C@@](Cn6cncn6)(c6ccc(F)cc6F)C5)cc4)CC3)cc2)c1=O [POSACONAZOLE],> 100
12,NC(=O)C(c1ccccc1)(c1ccccc1)[C@@H]1CCN(CCc2ccc3c(c2)CCO3)C1 [DARIFENACIN],56.2
13,COc1ccc2cc(-c3cc(-c4cc(Cl)cc(Cl)c4)nn3[C@@H](C)c3ccc(C(=O)NCCC(=O)O)cc3)ccc2c1 [MK-0893],~18.6

# Same assay, conditions: chlorocebus sabaeus, vero c1008, CC50
row,SMILES,CC50 at 48 h [µM]
1,CNCCC=C1c2ccccc2CCc2ccccc21 [NORTRIPTYLINE],24

# Same assay, conditions: chlorocebus sabaeus, vero c1008, pCC50
row,SMILES,CC50 at 48 h [µM]
1,CNCCC=C1c2ccccc2CCc2ccccc21 [NORTRIPTYLINE],24
